Laboratory results as given in US7186695B2 (priority 2001, dated 2007).
“Also recorded” adds a separate entry of the source. Read-outs that look alike come from different tables or passages of the source.

What was measured:
[1] = test system: BVSM cells; assay: Proliferation and viability of cultured cells, 72 hr, cell count; assay type: cell-based, bovine
Protocol: FIG. 19. Effect of GSAO on Proliferation of non-endothelial cells. 15,000 BxPC-3 (part A), HT1080 (part B), 3T3 (part C) or BVSM (part D) cells per well were seeded into gelatinised 24-well culture plates and allowed to attach for 24 hr. The media was then replaced with DMEM containing 0 to 1 mM GSAO or GSAA and either 5% BCS (part D) or 5% FCS (parts A, B and C). Cells were cultured for 72 hr and then dispersed and counted. The dotted lines indicate the cell number in control wells containing DMEM and 2% BCS (part D) or 2% FCS (parts A, B and C) which represented no to limited proliferation. The data points and errors represent the mean and range of duplicate wells.
(§1) BCE (Folkman et al. 1979), BAE, BxPC-3 (ATCC, Bethesda, Md.), HT1080 (Jiang et al., 1999), 3T3 (ATCC, Bethesda, Md.) and BVSM (Hogg et al., 1997) cells were harvested and cultured as indicated. Cells (0.5 mL of 30,000 or 100,000 cells per mL) were seeded into gelatinized 24-well culture plates (Corning Costar, Corning, N.Y.) in Dulbecco's Modified Eagle's Medium (DMEM, JHR Bioscience, Lenexa, Kans.) containing 10% fetal calf serum (FCS, Intergen Comp., Purchase, N.Y.) and 1% Glutamine Pen-Strep (GPS, Irvine Scientific, Santa Ana, Va.) and allowed to attach for 24 hr in 10% CO2 at 37° C. The media was then replaced with DMEM and 1% GPS containing 0 to 1 mM GSAO or GSAA and either 5% bovine calf serum (BCS, HyClone, Logan, Utah) and 1 ng per mL FGF-2 (Genzyme, Cambridge, Mass.) or 5% BCS and 10 ng per mL VEGF (Genzyme, Cambridge, Mass.) for BCE cells, 5% or 10% BCS for BAE cells, 5% BCS for BVSM cells, and 5% FCS for BxPC-3, HT1080 and 3T3 cells. Cells were cultured for 0 to 72 hr in 10% CO2 at 37° C. then dispersed in trypsin/EDTA (GibcoBRL, Granc Island, N.Y.), resuspended in Coulter balanced electrolyte solution and counted with a Z1 Coulter counter (Coulter Corp., Miami, Fla.). In all experiments there were two control wells containing DMEM with 1% GPS and either 5% BCS for BCE cells, 2% BCS for BAE and BVSM cells, or 2% FCS for BxPC-3, HT1080 and 3T3 cells. These wells represented no to limited proliferation.

[2] = test system: HDMVE cells; assay: Endothelial cell tube formation in Matrigel; assay type: cell-based, human; conditions: 18 hours; for effect on tube formation: 0.1, 1 or 100 μM
Protocol: FIG. 21. GSAO perturbs endothelial cell tube formation in Matrigel. Matrigel (100 μl) was added to wells of 96 well plates and allowed to gel for 60 minutes at 37° C. HDMVE cells (10,000 cells per well) in complete media containing 0.1, 1 or 100 μM GSAA or GSAO were seeded onto the Matrigel and the plates were incubated in 5% CO2, 37° C. The phase contrast micrographs were taken after 18 hours incubation.
Endothelial cells arrange into tube-like structures when seeded onto three-dimensional matrices such as the extracellular matrix preparation, Matrigel, or collagen. The tubes can be considered to represent immature blood vessels. Matrigel (100 μl, Becton Dickinson, Bedford, Mass.) was added to wells of 96 well plates (Gibco BRL, Gaithersburg, Md.) and allowed to gel for 60 minutes at 37° C. Human dermal microvascular endothelial (HDMVE) cells were harvested and cultured as described by Stathakis et al. (1997). HDMVE cells (8,000 cells per well) in 150 μl of M199 (Gibco BRL, Gaithersburg, Md.) media containing 30% pooled human serum, 50 μg per mL Heparin (Sigma, St. Louis, Mo.), 100 μg per mL Endothelial Cell Growth Supplement (Gibco BRL, Gaithersburg, Md.) and 0.1, 1 or 100 μM GSM or GSAO were seeded onto the Matrigel and the plates were incubated for 18 hours in 5% CO2, 37° C. Phase contrast micrographs of the wells were collected.

[3] = test system: BCE cells; assay: Proliferation and viability of cultured cells, 72 hr, cell count; assay type: cell-based, bovine; conditions: for IC50: Bos taurus, 72 h, BCE
Protocol: FIG. 18. Inhibition of proliferation and reduction in viability of BCE cells by GSAO. 15,000 (part A and B) or 50,000 (part C and D) BCE cells per well were seeded into gelatinised 24-well culture plates and allowed to attach for 24 hr (part A, B and D) or 72 hr (part C). The media was then replaced with DMEM containing 5% BCS and 0 to 1 mM GSAO or GSM and either 1 ng per mL FGF-2 (part A) or 10 ng per mL VEGF (part B). In part D, the media was replaced with DMEM containing 5% BCS and 1 ng per mL FGF-2 and either 10 μM GSAO or GSM. In part C, the media was replaced with DMEM containing 5% BCS and 0 to 1 mM GSAO or GSAA. Cells were cultured for 72 hr in parts A, B and C or for discrete times up to 48 hr in part D and then dispersed and counted. The dotted line in parts A, B and C indicate the cell number in control wells containing DMEM and 5% BCS which represented no to limited proliferation. The dotted line in part D represents no change in cell number over the 48 hr. The data points and errors represent the mean and range of duplicate wells.
as §1

[4] = test system: Human bone marrow cells; assay: 12 day bone marrow culture assay, granulocyte/macrophage colonies; assay type: cell-based; conditions: 12 days
Protocol: FIG. 20. Effect of GSAO on Proliferation of bone marrow progenitor cells. Human bone marrow cells were incubated in semi-solid agar containing 20% BCS, […] and 0 to 100 μM GSAA or GSAO for 12 days. Granulocyte/macrophage colonies of 40 or more cells were counted under an inverted microscope. The data points and errors represent the mean and SE of quadruplicate cultures.
GSAO reduced the number of granulocyte/macrophage colonies in a 12 day human bone marrow culture assay with an IC50 of ˜30 μM (FIG. 20). […] Human bone marrow cells (˜5×10^5 cells per mL) were added to semi-solid agar in DMEM containing 20% BCS, 5 ng per mL IL-3 and 0 to 100 μM GSM or GSAO. The cultures were incubated for 12 days at 37° C. and 5% CO2 and clusters of 40 or more cells were counted under an inverted microscope according to Metcalf (1977).

[5] = test system: BAE cells; assay: Proliferation and viability of cultured cells, 72 hr, cell count; assay type: cell-based, bovine; conditions: for IC50: Bos taurus, 72 h, BAE, 72 hr
Protocol: as §1

Row | Compound | Proliferation IC50 ([1]; 5% BCS, 72 hr) | IC50 ([1]; Bos taurus, 5% BCS, 72 hr) | effect on tube formation [2] | concentration at which effects on tube formation were apparent [2] | concentration at which effects on tube formation were marked [2] | decrease in viability of BCE cells over time ([3]; 10 μM GSAO, after 8 hours) | IC50 ([3]; 5% BCS + 1 ng/mL FGF-2, 72 hr, read-out: Proliferation IC50) | IC50 ([3]; 5% BCS + 1 ng/mL FGF-2, >90% confluent, 72 hr, read-out: Viability IC50) | IC50 ([3]; 5% BCS + 10 ng/mL VEGF, 72 hr, read-out: Proliferation IC50) | IC50 ([3]; 5% BCS + 10 ng/mL VEGF, >90% confluent, 72 hr, read-out: Viability IC50) | IC50 ([4]; Homo sapiens, Bone marrow cell, 288 h, semi-solid agar, 20% BCS, IL-3, read-out: IC50 for reduction of the number of granulocyte/macrophage colonies) | IC50 ([5]; 5% BCS, read-out: Proliferation IC50) | IC50 ([5]; 5% BCS, >90% confluent, read-out: Viability IC50) | IC50 ([5]; 10% BCS, read-out: Proliferation IC50) | IC50 ([5]; 10% BCS, >90% confluent, read-out: Viability IC50) | effect on proliferation or viability ([1]; up to a concentration of 1 mM) | effect on viability of BCE cells ([3]; 0 to 1 mM) | effect on proliferation of BCE cells ([3]; highest concentration used, 1 mM) | effect on colony numbers ([4]; up to a concentration of 100 μM) | effect on proliferation or viability of BAE cells ([5]; not shown)
1 | NC(CCC(=O)NC(CSCC(=O)Nc1ccc([As]=O)cc1)C(=O)NCC(=O)O)C(=O)O (stereo not drawn) [GSAO, 4-(N-(S-glutathionylacetyl)amino)-phenylarsenoxide] | did not affect the proliferation; also recorded: No effect | ~40 µM | perturbed tube formation | 0.1 µM | 100 µM | no decrease in viability | ~0.1 µM | ~10 µM | ~0.05 µM | ~3 µM | ~30 µM | ~0.02 µM | ~8 µM | ~0.2 µM | ~10 µM | – | – | – | – | –
2 | N[C@@H](CCC(=O)N[C@@H](CSCC(=O)Nc1ccc([As](=O)(O)O)cc1)C(=O)NCC(=O)O)C(=O)O [GSAA, 4-(N-(S-glutathionylacetyl)amino)phenylarsonic acid, reference compound] | – | – | no apparent effect | – | – | – | – | – | – | – | – | – | – | – | – | no significant effect | no significant effect | only a marginal effect | no effect | did not effect either proliferation or viability
